SMILES strings stand for the structures.

One assay concerns Spodoptera frugiperda. The experiment in a line: Insecticidal activity against Spodoptera frugiperda (fall armyworm) larvae assessed as mortality at 25 ppm. It counts as functional.
Assay [1] relates to Drosophila melanogaster. As to the kind of experiment: Insecticidal activity against first-instar larval stage of Drosophila melanogaster fed with artificial diet containing compound assessed as mortality measured after 72 hr. Format: functional. The settings on record: read-out: LD50 (the source's name).
Assay [2] has as its system Drosophila melanogaster. As to the kind of experiment: Insecticidal activity against first-instar larval stage of Drosophila melanogaster fed with artificial diet containing compound assessed as mortality at 37.6 umol/ml measured after 72 hr (reference value: 3.33 +/-0.33%). It counts as functional.
The subject of assay [3] is Drosophila melanogaster. The experiment in a line: Insecticidal activity against first-instar larval stage of Drosophila melanogaster fed with artificial diet containing compound assessed as mortality at 37.6 umol/ml measured after 48 hr (reference value: 0%). Format: functional.
Assay [4] has as its system Drosophila melanogaster. As to the kind of experiment: Insecticidal activity against first-instar larval stage of Drosophila melanogaster fed with artificial diet containing compound assessed as mortality at 37.6 umol/ml measured after 24 hr (reference value: 0%). It counts as functional.
The test system of assay [5] is Drosophila melanogaster. As to the kind of experiment: Insecticidal activity against first-instar larval stage of Drosophila melanogaster fed with artificial diet containing compound assessed as mortality at 18.3 umol/ml measured after 48 hr (reference value: 0%). It counts as functional.
For assay [6], the system named is Drosophila melanogaster. The experiment in a line: Insecticidal activity against first-instar larval stage of Drosophila melanogaster fed with artificial diet containing compound assessed as mortality at 18.3 umol/ml measured after 24 hr (reference value: 0%). It counts as functional.
The subject of assay [7] is Drosophila melanogaster. The experiment in a line: Insecticidal activity against first-instar larval stage of Drosophila melanogaster fed with artificial diet containing compound assessed as mortality at 8.3 umol/ml measured after 72 hr (reference value: 0%). It counts as functional.
Assay [8] concerns Drosophila melanogaster. The experiment in a line: Insecticidal activity against first-instar larval stage of Drosophila melanogaster fed with artificial diet containing compound assessed as mortality at 8.3 umol/ml measured after 48 hr (reference value: 0%). Format: functional.
The test system of assay [9] is Drosophila melanogaster. As to the kind of experiment: Insecticidal activity against first-instar larval stage of Drosophila melanogaster fed with artificial diet containing compound assessed as mortality at 8.3 umol/ml measured after 24 hr (reference value: 0%). Format: functional.
Assay [10] has as its system Drosophila melanogaster. As to the kind of experiment: Insecticidal activity against first-instar larval stage of Drosophila melanogaster fed with artificial diet containing compound assessed as mortality at 18.3 umol/ml measured after 72 hr (reference value: 0%). Format: functional.
Assay [11] has as its system Drosophila melanogaster. As to the kind of experiment: Insecticidal activity against first-instar larval stage of Drosophila melanogaster fed with artificial diet containing compound assessed as mortality measured after 24 hr. It counts as functional. The settings on record: read-out: LD50 (the source's name).
In assay [12] the test system is Drosophila melanogaster. The experiment in a line: Insecticidal activity against first-instar larval stage of Drosophila melanogaster fed with artificial diet containing compound assessed as mortality at 37.6 umol/ml measured after 144 hr. Format: functional.
Assay [13] has as its system Drosophila melanogaster. The experiment in a line: Insecticidal activity against first-instar larval stage of Drosophila melanogaster fed with artificial diet containing compound assessed as mortality at 37.6 umol/ml measured after 120 hr. It counts as functional.
Assay [14] has as its system Drosophila melanogaster. The experiment in a line: Insecticidal activity against first-instar larval stage of Drosophila melanogaster fed with artificial diet containing compound assessed as mortality at 37.6 umol/ml measured after 96 hr. It counts as functional.
The subject of assay [15] is Drosophila melanogaster. As to the kind of experiment: Insecticidal activity against first-instar larval stage of Drosophila melanogaster fed with artificial diet containing compound assessed as mortality at 18.3 umol/ml measured after 144 hr. It counts as functional.
Assay [16] has as its system Drosophila melanogaster. As to the kind of experiment: Insecticidal activity against first-instar larval stage of Drosophila melanogaster fed with artificial diet containing compound assessed as mortality at 18.3 umol/ml measured after 120 hr. It counts as functional.
Assay [17] concerns Drosophila melanogaster. As to the kind of experiment: Insecticidal activity against first-instar larval stage of Drosophila melanogaster fed with artificial diet containing compound assessed as mortality at 18.3 umol/ml measured after 96 hr. It counts as functional.
For assay [18], the system named is Drosophila melanogaster. As to the kind of experiment: Insecticidal activity against first-instar larval stage of Drosophila melanogaster fed with artificial diet containing compound assessed as mortality at 8.3 umol/ml measured after 144 hr. Format: functional.
Assay [19] relates to Drosophila melanogaster. The experiment in a line: Insecticidal activity against first-instar larval stage of Drosophila melanogaster fed with artificial diet containing compound assessed as mortality at 8.3 umol/ml measured after 120 hr. It counts as functional.
Assay [20] deals with Drosophila melanogaster. As to the kind of experiment: Insecticidal activity against first-instar larval stage of Drosophila melanogaster fed with artificial diet containing compound assessed as mortality at 8.3 umol/ml measured after 96 hr. Format: functional.
In assay [21] the target is Acetylcholinesterase (Spodoptera litura) (UniProt C5IU80). As to the kind of experiment: Inhibition of acetylcholinesterase in Spodoptera frugiperda (fall armyworm) at 15 ppm.
Chain of Acetylcholinesterase (Spodoptera litura) (C5IU80 as listed by the source): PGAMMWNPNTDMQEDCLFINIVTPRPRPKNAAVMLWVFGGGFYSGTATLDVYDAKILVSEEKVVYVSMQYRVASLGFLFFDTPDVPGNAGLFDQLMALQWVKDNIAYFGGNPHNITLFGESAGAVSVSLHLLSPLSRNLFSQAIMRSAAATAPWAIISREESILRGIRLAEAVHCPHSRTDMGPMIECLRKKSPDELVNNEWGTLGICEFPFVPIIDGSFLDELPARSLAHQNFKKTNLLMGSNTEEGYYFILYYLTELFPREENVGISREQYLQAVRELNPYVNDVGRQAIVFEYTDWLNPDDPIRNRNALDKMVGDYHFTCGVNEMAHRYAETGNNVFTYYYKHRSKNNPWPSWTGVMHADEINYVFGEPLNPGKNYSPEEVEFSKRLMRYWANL

Take `CC(=O)OC[C@H]1C[C@@H](OC(C)=O)[C@@H](OC(C)=O)[C@@]2(C)[C@H](OC(=O)c3ccccc3)[C@@H](OC(C)=O)[C@@H]3[C@H](OC(C)=O)[C@]12OC3(C)C`: the mortality at 25 ppm in the assay with Spodoptera frugiperda worked out at 100%.
Regarding `C=C(C)[C@@H]1CC[C@@]2(C)CC[C@H](O)C(C)=C2C1` [3BETA-HYDROXY-CYPERONE], the LC50 in the assay with Drosophila melanogaster [1] was 9.36 mM. Also, the mortality in the assay on Drosophila melanogaster [2] was found to be 100%; in the assay on Drosophila melanogaster [3], 96%; in the assay on Drosophila melanogaster [4], 80%; with Drosophila melanogaster [5] it was 73.3%; in the assay on Drosophila melanogaster [6], 36.7%; in the assay on Drosophila melanogaster [7] it was 50%. In addition, the mortality amounted to 50% with Drosophila melanogaster [8], 20% in the assay on Drosophila melanogaster [9] and 73.3% in the assay with Drosophila melanogaster [10].
As to `C=C(C)[C@@H]1CC[C@@]2(C)CCC(=O)C(C)=C2C1` [ALPHA-CYPERONE], in the assay on Drosophila melanogaster [11], the LC50 turned out to be 4.99 mM. Also, the mortality in the assay with Drosophila melanogaster [2] amounted to 100%; with Drosophila melanogaster [3], 100%; in the assay with Drosophila melanogaster [4], 96.7%; in the assay on Drosophila melanogaster [5], 100%; with Drosophila melanogaster [6], 83%; with Drosophila melanogaster [7], 100%. The values for the mortality in the assay with Drosophila melanogaster [8], with Drosophila melanogaster [9] and in the assay on Drosophila melanogaster [10] were 76.6%, 70% and 100%, respectively.
As for `C=C(C)[C@@H]1CC[C@@]2(C)CCC(O)C(C)=C2C1` (mixture of isomers), the LC50 with Drosophila melanogaster [11] turned out to be 8.78 mM. Further, the mortality stood at 100% in the assay with Drosophila melanogaster [2]; 96% in the assay with Drosophila melanogaster [3]; 90% in the assay on Drosophila melanogaster [4]; 86.7% in the assay with Drosophila melanogaster [5]; 70% with Drosophila melanogaster [6]; 100% in the assay on Drosophila melanogaster [7]. Moreover, the mortality with Drosophila melanogaster [8] is listed as 70%; with Drosophila melanogaster [9], 50%; in the assay on Drosophila melanogaster [10], 100%.
Regarding `C=C(C)[C@@H]1CC[C@]2(C)CCC(=O)[C@H](C)[C@]2(O)C1` [5ALPHA-HYDROXY-14-EUDESM-11-EN-3-ONE], in the assay on Drosophila melanogaster [1], the LC50 amounted to 42.6 mM. For the same compound, the mortality with Drosophila melanogaster [12] turned out to be 40%; with Drosophila melanogaster [13], 36.6%; in the assay with Drosophila melanogaster [14] it was 36.6%; in the assay with Drosophila melanogaster [2], 33.3%; in the assay with Drosophila melanogaster [3], 0%; with Drosophila melanogaster [4], 0%. Moreover, the mortality in the assay on Drosophila melanogaster [15] worked out at 26.7%; in the assay with Drosophila melanogaster [16], 20%; in the assay with Drosophila melanogaster [17], 20%; with Drosophila melanogaster [5] it was 0%; in the assay on Drosophila melanogaster [6], 0%; with Drosophila melanogaster [18], 23.3%. Also, the mortality came to 16.7% with Drosophila melanogaster [19]; 16.7% in the assay with Drosophila melanogaster [20]; 0% with Drosophila melanogaster [7]; 0% in the assay with Drosophila melanogaster [8]; 0% with Drosophila melanogaster [9]; 13.3% in the assay with Drosophila melanogaster [10].
Compound `CC(=O)OC[C@H]1C[C@@H](OC(C)=O)[C@@H](OC(C)=O)[C@@]2(C)[C@H](OC(=O)c3ccco3)[C@@H](OC(C)=O)[C@@H]3[C@H](OC(C)=O)[C@]12OC3(C)C` registered an inhibition in [21] of 100%. Also, the mortality at 25 ppm in the assay with Spodoptera frugiperda is 100%.
Turning to `C=C(C)[C@@H]1CC[C@]2(C)CCC(=O)C(C)=C2C1` [(-)-10-EPI-ALPHA-CYPERONE], the mortality was 0.11% with Drosophila melanogaster [2]; 0.11% in the assay with Drosophila melanogaster [3]; 0% with Drosophila melanogaster [4]; 0% in the assay on Drosophila melanogaster [5]; 0% in the assay on Drosophila melanogaster [6]; 0% with Drosophila melanogaster [7]. Moreover, the mortality with Drosophila melanogaster [8], with Drosophila melanogaster [9] and in the assay with Drosophila melanogaster [10] was 0% in each case.
`C=C(C)[C@@H]1CC[C@@]2(C)CC[C@@H](O)C(C)=C2C1` [3ALPHA-HYDROXY-CYPERONE]: the mortality stood at 10% in the assay with Drosophila melanogaster [12]; 10% in the assay with Drosophila melanogaster [13]; 10% in the assay with Drosophila melanogaster [14]; 6.7% with Drosophila melanogaster [2]; 6.7% with Drosophila melanogaster [3]; 0% with Drosophila melanogaster [4]. Also, the mortality was 6.6% in the assay on Drosophila melanogaster [15]; 3.3% with Drosophila melanogaster [16]; 3.3% with Drosophila melanogaster [17]; 0% with Drosophila melanogaster [5]; 0% in the assay with Drosophila melanogaster [6]; 0% with Drosophila melanogaster [18]. Also, the mortality in the assay with Drosophila melanogaster [19] worked out at 0%; with Drosophila melanogaster [20], 0%; with Drosophila melanogaster [7] it was 0%; in the assay on Drosophila melanogaster [8], 0%; with Drosophila melanogaster [9], 0%; in the assay on Drosophila melanogaster [10], 3.3%.
For the compound `C=C(C)[C@@H]1CC[C@]2(C)CCC(=O)C[C@]2(O)C1` [5-HYDROXY-14-NOREUDESM-11-EN-3-ONE], the mortality with Drosophila melanogaster [12] was 23.3%; with Drosophila melanogaster [13] it was 23.3%; in the assay with Drosophila melanogaster [14] it was 23.3%; with Drosophila melanogaster [2] it was 16.6%; in the assay with Drosophila melanogaster [3], 13.3%; with Drosophila melanogaster [4], 13%. For the same compound, the mortality in the assay on Drosophila melanogaster [15] is 20%; in the assay on Drosophila melanogaster [16] it was 20%; in the assay on Drosophila melanogaster [17], 20%; with Drosophila melanogaster [5], 6.7%; in the assay on Drosophila melanogaster [6], 3.3%; in the assay with Drosophila melanogaster [18], 16.6%. Also, the mortality in the assay on Drosophila melanogaster [19] is 16.6%; in the assay on Drosophila melanogaster [20], 6.6%; in the assay on Drosophila melanogaster [7], 6.7%; in the assay on Drosophila melanogaster [8], 6.7%; in the assay on Drosophila melanogaster [9] it was 0%; in the assay on Drosophila melanogaster [10], 13.3%.
On to `CC1=C2C[C@H](C(C)(O)CO)CC[C@@]2(C)CCC1=O` (stereo not given in full), for which the mortality with Drosophila melanogaster [12] was 23%; in the assay with Drosophila melanogaster [13], 23%; with Drosophila melanogaster [14], 23%; in the assay with Drosophila melanogaster [2], 20%; in the assay on Drosophila melanogaster [3], 20%; with Drosophila melanogaster [4], 20%. In addition, the mortality in the assay with Drosophila melanogaster [15] came out at 23%; with Drosophila melanogaster [16] it was 23%; in the assay on Drosophila melanogaster [17], 23%; with Drosophila melanogaster [5] it was 10%; in the assay with Drosophila melanogaster [6], 10%; in the assay with Drosophila melanogaster [18] it was 10%. Besides, the mortality with Drosophila melanogaster [19] was 10%; in the assay on Drosophila melanogaster [20] it was 10%; in the assay on Drosophila melanogaster [7], 10%; in the assay on Drosophila melanogaster [8], 10%; in the assay on Drosophila melanogaster [9] it was 10%; with Drosophila melanogaster [10] it was 0%.
